Measurements: US11731977B2, “SGC stimulators” (Cyclerion Therapeutics, Inc., priority 2016, dated 2023)
pEC50: −log10 of the molar value.

Molecular target: T1, sGC enzyme (Homo sapiens, UniProt Q02108+Q02153)
T1 construct: sGC enzyme activity values in HEK cells, determined by the GloSensor assay; host or cells: HEK293 cells stably expressing GloSensor 40F cGMP biosensor
T1 sequence (Q02153 1-619): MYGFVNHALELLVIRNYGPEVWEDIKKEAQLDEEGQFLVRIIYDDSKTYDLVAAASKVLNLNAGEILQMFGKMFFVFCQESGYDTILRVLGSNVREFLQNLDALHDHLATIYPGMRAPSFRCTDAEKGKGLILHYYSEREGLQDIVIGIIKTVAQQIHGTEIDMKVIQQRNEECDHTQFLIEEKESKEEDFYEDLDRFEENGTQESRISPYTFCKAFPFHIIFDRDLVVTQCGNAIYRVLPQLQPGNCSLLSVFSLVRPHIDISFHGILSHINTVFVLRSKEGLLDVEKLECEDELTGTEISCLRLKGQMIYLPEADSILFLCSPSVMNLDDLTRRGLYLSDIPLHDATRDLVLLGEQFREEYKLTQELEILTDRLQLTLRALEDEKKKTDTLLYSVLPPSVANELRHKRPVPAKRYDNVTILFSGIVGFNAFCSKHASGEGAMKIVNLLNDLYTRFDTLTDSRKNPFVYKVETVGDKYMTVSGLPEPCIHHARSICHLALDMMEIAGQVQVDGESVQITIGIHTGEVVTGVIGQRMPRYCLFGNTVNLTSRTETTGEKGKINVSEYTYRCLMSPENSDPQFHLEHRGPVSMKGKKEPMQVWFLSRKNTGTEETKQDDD
T1 sequence (Q02108 1-690): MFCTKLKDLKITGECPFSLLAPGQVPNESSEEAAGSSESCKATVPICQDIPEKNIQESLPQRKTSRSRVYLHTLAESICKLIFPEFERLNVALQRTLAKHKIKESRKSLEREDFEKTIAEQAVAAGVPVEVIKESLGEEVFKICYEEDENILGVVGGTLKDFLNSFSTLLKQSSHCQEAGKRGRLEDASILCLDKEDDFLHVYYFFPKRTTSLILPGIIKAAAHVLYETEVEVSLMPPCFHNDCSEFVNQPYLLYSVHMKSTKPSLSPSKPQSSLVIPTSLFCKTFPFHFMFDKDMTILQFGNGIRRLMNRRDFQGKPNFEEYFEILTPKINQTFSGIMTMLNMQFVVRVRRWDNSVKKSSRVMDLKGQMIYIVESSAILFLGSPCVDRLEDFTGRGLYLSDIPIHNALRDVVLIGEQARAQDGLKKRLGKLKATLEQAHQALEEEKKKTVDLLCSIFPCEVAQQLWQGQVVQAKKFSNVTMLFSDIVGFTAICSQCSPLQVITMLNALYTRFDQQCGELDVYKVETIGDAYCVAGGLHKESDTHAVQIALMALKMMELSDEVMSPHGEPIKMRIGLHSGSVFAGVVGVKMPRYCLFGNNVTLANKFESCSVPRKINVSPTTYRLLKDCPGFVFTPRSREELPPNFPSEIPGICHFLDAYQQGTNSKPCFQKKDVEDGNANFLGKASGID
Assay: cGMP GloSensor cell-based assay, 384-well format (Example 2a)
Conditions: HEK293 GloSensor 40F cGMP cells; 10 μM DETA-NONOate; 50% of high control (30 μM Compound Y); read-out: Abs EC50
Description: Human embryonic kidney cells (HEK293) cells expressing GloSensor™ 40F cGMP (Part No: CS182801, Promega) were used to evaluate the activity of test compounds. The luminescent biosensors (engineered luciferase) that were incorporated into these cells detect cGMP formed by the compounds stimulating the sGC enzyme and emit luminescence.
cGMP GloSensor cells were maintained in Dulbecco's Modification of Eagle's Medium (DMEM) supplemented with fetal bovine serum (FBS, 10% final) and hygromycine (200 ug/ml). The day before assay, cells were plated in DMEM with 10% FBS in a 50 μL volume at a density of 1.5×10^4 cells/well in a poly-D-lysine coated 384-well flat white-bottom plate (Corning Cat No 35661). Cells were incubated overnight at 37° C. in a humidified chamber with 5% CO2. The next day, medium was removed and cells were replaced with 40 ul/well of GloSensor™, 2 mM (Promega Cat No E1291). Cells were treated for 90 minutes at 25° C. to allow the substrate to equilibrate in the cells. Test compounds and Diethylenetriamine NONOate (DETA-NONOate, or DETA-NO) was diluted to 3 mM (20×) in serum-free CO2 independent medium and serially diluted at 4× dilutions to create 5× dose curve from which 10 ul was added to the wells (x μM concentration for test compound solution and 10 μM concentration for DETA-NONOate solution; wherein x is one of the following final concentrations: 30000 nM, 7500 nM, 1875 nM, 468.8 nM, 117.2 nM, 29.29 nM, 7.320 nM, 1.830 nM, 0.460 nM, 0.114 nM, and 0.029 nM).
For the kinetics studies, luminescense was measured right away for 0.2 sec per well with Envision (Perkin Elmer). For endpoint SAR screening, data were collected after 55 min incubation at room temperature.
Data were normalized to a high control using the following equation: 100*(Sample−Low Control)/(High Control−Low Control), where the low control is the average of 16 samples treated with 1% DMSO, and the high control is the average of 16 samples treated with 30 μM of Compound Y depicted below. Data were fit using a 4-parameter fit (log(agonist) vs. response—variable slope) using GraphPad Prism Software v.5. n=2 for all compounds. The Absolute (Abs) EC50 was interpolated from the curve fit and is defined as the concentration at which a given compound elicits 50% of the high control response after data normalization as indicated above. Compounds failing to elicit a minimum response of 50% are reported as >30 μM or ND. For compounds run in duplicate or n higher than 2, the result herein given is the geometric mean of the several results obtained.

Structure (SMILES) | pEC50
Cc1nc(-c2cn3ccnc3c(Cc3ccccc3F)n2)nn1Cc1cccc(F)c1 [Compound I-47, 8-(2-Fluorobenzyl)-6-(1-(3-fluorobenzyl)-5-methyl-1H-1,2,4-triazol-3-yl)imidazo[1,2-a]pyrazine] | ≥ 7.00
Fc1ccccc1Cc1nc(-c2nc(C(F)(F)F)n[nH]2)cn2cnnc12 [Compound I-72, 8-(2-Fluorobenzyl)-6-(3-(trifluoromethyl)-1H-1,2,4-triazol-5-yl)-[1,2,4]triazolo[4,3-a]pyrazine] | < 6.00
Fc1ccccc1Cc1nc(-c2nc(C(F)(F)F)n[nH]2)cn2c(F)cnc12 [Compound I-68, 3-Fluoro-8-(2-fluorobenzyl)-6-(3-(trifluoromethyl)-1H-1,2,4-triazol-5-yl)imidazo[1,2-a]pyrazine] | ≥ 7.00
CCCCn1nc(-c2cn3ccnc3c(Cc3ccccc3F)n2)nc1C [Compound I-56, 6-(1-Butyl-5-methyl-1H-1,2,4-triazol-3-yl)-8-(2-fluorobenzyl)imidazo[1,2-a]pyrazine] | ≥ 7.00
Fc1cc(F)cc(Cc2nc(-c3nc(C(F)(F)F)n[nH]3)cn3ncnc23)c1 [Compound I-24, 8-(3,5-Difluorobenzyl)-6-(3-(trifluoromethyl)-1H-1,2,4-triazol-5-yl)-[1,2,4]triazolo[1,5-a]pyrazine] | ≥ 7.00
Cc1nc(-c2cn3ccnc3c(Cc3ccccc3F)n2)n(Cc2ccc(F)cc2)n1 [Compound I-42, 8-(2-fluorobenzyl)-6-(1-(4-fluorobenzyl)-3-methyl-1H-1,2,4-triazol-5-yl)imidazo[1,2-a]pyrazine] | < 6.00
Cc1nc(-c2cn3ccnc3c(Cc3ccccc3F)n2)nn1CC(F)(F)F [Compound I-38, 8-(2-fluorobenzyl)-6-(5-methyl-1-(2,2,2-trifluoroethyl)-1H-1,2,4-triazol-3-yl)imidazo[1,2-a]pyrazine] | ≥ 7.00
Fc1cc(F)cc(Cc2nc(-c3nc(C(F)F)n[nH]3)cn3ccnc23)c1 [Compound I-30, 8-(3,5-Difluorobenzyl)-6-(3-(difluoromethyl)-1H-1,2,4-triazol-5-yl)imidazo[1,2-a]pyrazine] | ≥ 7.00
Cc1cc(Cn2nc(-c3cn4ccnc4c(Cc4ccccc4F)n3)nc2C)no1 [Compound I-51, 3-((3-(8-(2-Fluorobenzyl)imidazo[1,2-a]pyrazin-6-yl)-5-methyl-1H-1,2,4-triazol-1-yl)methyl)-5-methylisoxazole] | ≥ 7.00
Cn1cnc2c(Cc3ccccc3F)nc(-c3nc(C(F)(F)F)n[nH]3)nc21 [Compound I-37, 6-(2-Fluorobenzyl)-9-methyl-2-(3-(trifluoromethyl)-1H-1,2,4-triazol-5-yl)-9H-purine] | < 6.00
Cc1cn2cc(-c3nc(C(F)F)n[nH]3)nc(Cc3ccccc3F)c2n1 [Compound I-32, 6-(3-(Difluoromethyl)-1H-1,2,4-triazol-5-yl)-8-(2-fluorobenzyl)-2-methylimidazo[1,2-a]pyrazine] | < 6.00

The remaining lines, values ahead:

pEC50 | Structure (SMILES)
≥ 7.00 | Fc1ccc(F)c(Cc2nc(-c3nc(C(F)(F)F)n[nH]3)cn3ncnc23)c1 [Compound I-33, 8-(2,5-Difluorobenzyl)-6-(3-(trifluoromethyl)-1H-1,2,4-triazol-5-yl)-[1,2,4]triazolo[1,5-a]pyrazine]
≥ 7.00 | Fc1cccc(Cc2nc(-c3nc(C(F)(F)F)n[nH]3)cn3ncnc23)c1F [Compound I-18, 8-(2,3-Difluorobenzyl)-6-(3-(trifluoromethyl)-1H-1,2,4-triazol-5-yl)-[1,2,4]triazolo[1,5-a]pyrazine]
≥ 7.00 | Fc1cc(F)cc(Cc2nc(-c3nc(C(F)F)n[nH]3)cn3ncnc23)c1 [Compound I-25, 8-(3,5-Difluorobenzyl)-6-(3-(difluoromethyl)-1H-1,2,4-triazol-5-yl)-[1,2,4]triazolo[1,5-a]pyrazine]
6.00 to 7.00 | CCn1nc(-c2cn3ccnc3c(Cc3ccccc3F)n2)nc1C [Compound I-53, 6-(1-Ethyl-5-methyl-1H-1,2,4-triazol-3-yl)-8-(2-fluorobenzyl)imidazo[1,2-a]pyrazine]
≥ 7.00 | Cc1nc(-c2cn3ccnc3c(Cc3ccccc3F)n2)nn1CC(=O)C(C)(C)C [Compound I-48, 1-(3-(8-(2-Fluorobenzyl)imidazo[1,2-a]pyrazin-6-yl)-5-methyl-1H-1,2,4-triazol-1-yl)-3,3-dimethylbutan-2-one]
≥ 7.00 | Nc1nc(-c2cn3ccnc3c(Cc3ccccc3F)n2)nn1CC(F)(F)F [Compound I-59, 3-(8-(2-Fluorobenzyl)imidazo[1,2-a]pyrazin-6-yl)-1-(2,2,2-trifluoroethyl)-1H-1,2,4-triazol-5-amine]
≥ 7.00 | Fc1ccc(F)c(Cc2nc(-c3nc(C(F)F)n[nH]3)cn3ncnc23)c1 [Compound I-23, 8-(2,5-Difluorobenzyl)-6-(3-(difluoromethyl)-1H-1,2,4-triazol-5-yl)-[1,2,4]triazolo[1,5-a]pyrazine]
≥ 7.00 | Fc1cc(F)cc(Cc2nc(-c3nc(C(F)(F)F)n[nH]3)cn3ccnc23)c1 [Compound I-29, 8-(3,5-Difluorobenzyl)-6-(3-(trifluoromethyl)-1H-1,2,4-triazol-5-yl)imidazo[1,2-a]pyrazine]
< 6.00 | Fc1cccc(F)c1Cc1nc(-c2nc(C(F)F)n[nH]2)cn2ccnc12 [Compound I-20, 8-(2,6-Difluorobenzyl)-6-(3-(difluoromethyl)-1H-1,2,4-triazol-5-yl)imidazo[1,2-a]pyrazine]
